Laboratory results as given in patent publication US20210299150A1, “AP39 IMPACT ON MITOCHONDRIA, METABOLISM, GENE TRANSCRIPTION REGULATION, CARDIOTOXICITY PROTECTION AND CANCER TREATMENT” (priority 2020, published 2021).

How the values were obtained:
H9C2 cells [1] = assay: Mitochondrial H2S levels (AzMAC) and morphology (mitotracker Red) in H9C2 cells; assay type: cell-based, Rat
Source text: Note that white arrow heads and yellow arrows compare and contrast no-H2S: fusion and H2S-presence: fission scenarios in the same image AP39 treatment lane.
Mitochondrial fission was correlated with H2S levels. To investigate the impact of Dox on mitochondrial biogenesis and mitochondrial H2S levels, H9C2 cells were used in combination with H2S sensitive dye AzMAC and mitotracker Red dye as reported previously^8. […] Further, H2S levels (yellow arrows) highly correlated with a dotted appearance of mitochondria, implying that H2S causes mitochondrial fission, which is a prerequisite for eliminating damaged mitochondria^49.

[2] = Glucose, glutamine and lactate in cell culture supernatants; assay type: cell-based
Description: Quantification of glutamine, glucose and lactate in the cell culture supernatants at 16 and 24 hrs. n=3; p<0.05 or 0.01 (2 symbols); * vs Cont; # vs Dox at 16 hrs; and $ vs Cont; ^ vs Dox at 24 hrs.
(§1) To this end, 13C-glucose flux/isotope tracing and quantified metabolites through GC-MS were examined at 16 hrs and 24 hrs after the treatments. Glucose, glutamine and lactate were also measured in supernatants at these time points. […] With the exception of glycolytic metabolites, the remaining metabolic pathways (poor labeling) were non-operational after Dox treatment (FIG. 10A).
However, AP39 treatments caused dominant effects in glucose utilization (1.5 fold increase vs Dox at 24 hrs) and lactate production. Such high lactate production is one of the main reasons behind the modest in vitro protective ability of AP39 against Dox (FIG. 5), which is in contrast to the in vivo scenario (FIGS. 3 and 4). Thus, metabolomics and transcriptomic approaches led to better understanding of the protective function of AP39.

[3] = test system: 786-O cells renal cancer cells; assay: Cell viability of 786-O renal cancer cells; assay type: cell-based
Description: (§2) Methods for cell viability: Cells were plated in 96 wells/6 wells cell culture plates. After 24 hrs of plating, the treatments (added in the growth medium) were conducted. The following assays were performed after 24 hrs of the treatments (day 2). (FIGS. 15A, 17-20, 24-27)
(§3) MTT assay methods. For the MTT assay, […] of 5 mg/ml MTT-tetrazolium salts in PBS was added to each well containing the growth medium. After 3 hours of incubation, the medium was removed and the formazan crystals were dissolved by adding DMSO. The absorption of the formazan solution was measured using a spectrophotometer at a wavelength of 570 nm. FIGS. 15B, 21-22.
786-O cells renal cancer cells were exposed to control, AP39 (AP) at 40 or 60 μM, Doxorubicin at 2.5 or 20 μM, thiolactate at 10 mM, AP39 and Doxorubicin, AP39 and thiolactate, or Doxorubicin and Thiolactate. […] FIGS. 18 and 21.

H1299 lung cancer cells = assay: Cell viability of H1299 lung cancer cells; assay type: cell-based
Description: as §2, §3
H1299 lung cancer cells were exposed to control, AP39 (AP) at 40 or 60 μM, Doxorubicin at 2.5 or 20 μM, thiolactate at 10 mM, AP39 and Doxorubicin, AP39 and thiolactate, or Doxorubicin and Thiolactate. […] FIGS. 20-22.

H9C2 cells [4] = assay: Mitochondrial ROS, MitoSox Red, H9C2; assay type: cell-based, Rat; settings: H9C2, AP39 and Dox co-treatment
Description: (§4) AP39 treatment also ameliorated Dox toxicity in a model of Rat cardiomyoblast cell line, H9C2. […] There was a narrow window of protection, as 30 μM and 50 μm doses were not as strong as the 40 μM dose (FIGS. 5A and B) in conferring protection. […] Note that Dox caused an apoptotic phenotype in correlation with ROS levels (FIG. 5F, Dox lane). This in vitro AP39 protection is modest when compared to the in vivo scenario. This difference may be due to rapid clearance of toxic metabolites (for instance, higher lactate production, FIG. 10D) and better oxygen supply (AP39 stimulated OCR, FIG. 7C) in vivo and lack of such sophistication in vitro.

A549 lung cancer cells = assay: Cell viability of A549 lung cancer cells; assay type: cell-based
Description: as §2, §3
A549 lung cancer cells were exposed to control, AP39 (AP) at 40 or 60 μM, Doxorubicin at 2.5 or 20 μM, thiolactate at 10 mM, AP39 and Doxorubicin, AP39 and thiolactate, or Doxorubicin and Thiolactate. […] FIGS. 19 and 21.

H9C2 cells [5] = assay: Crystal violet staining of H9C2 cells, Dox toxicity; assay type: cell-based, Rat
Description: as §4
Crystal Violet (CV) assay. For the CV Staining assay, cells were stained with 0.5% crystal violet in 30% ethanol for 10 minutes at room temperature after removal of the medium. The cells were lysed in a 1% SDS (sodium dodecyl sulfate) solution. The absorbance of the solution was measured using a spectrophotometer at a wavelength of 595 nm. FIG. 27.

[6] = 13C-glucose isotope tracing and GC-MS metabolite quantification; assay type: cell-based
Description: Stable isotope (13C glucose) tracer studies. Heatmap.
as §1
When considered AP39-mediated activation of AMPK, H2S is selectively halting energy consuming anabolic pathways, such as protein synthesis (also, lipid, AMPK inhibits […], a rate limiting lipid synthesizing enzyme, FIGS. 7A and B), as observed before^41, thus leading to accumulation of amino acids and is enhancing TCA cycle through AMPK activation. The net result is better energy management with AP39/H2S treatment.

[7] = test system: SK-N-BE(2) neuroblastoma cell line; assay: Cell viability (images, MTT) of SK-N-BE(2) neuroblastoma cell line; assay type: cell-based, human
Description: as §2, §3
The SK-N-BE(2) neuroblastoma cell line was exposed to control, AP39 (AP) at 40 or 60 μM, Doxorubicin at 2.5 or 20 μM, thiolactate at 10 mM, AP39 and Doxorubicin, AP39 and thiolactate, or Doxorubicin and Thiolactate. […] FIGS. 17, 21, 24-25.

[8] = AP39 40 or 60 μM, thiolactate 10 mM, 24 hrs
[9] = combination with Doxorubicin 2.5 μM

In the case of `O=C(CCCCCCCCC[P+](c1ccccc1)(c1ccccc1)c1ccccc1)Oc1ccc(-c2cc(=S)ss2)cc1.[Br-]` [AP39], the Dox-mediated mitochondrial fusion (H9C2 cells [1]; H9C2, AP39 with Dox) is reported as “reversed after AP39 treatment”, the “mitochondrial H2S levels (AzMAC)” value (H9C2 cells [1]; H9C2, single agent vs control) is reported as “H2S production enhancement” and the “mitochondrial morphology (fission / fusion)” value (H9C2 cells [1]; H9C2, single agent vs control) is reported as “increased mitochondrial fission”. The “glutamine utilization (supernatants)” value ([2]; compared to control) was “suppressed glutamine utilization”, the lactate production ([2]; supernatants) was “potent inducer of lactate production” and the glucose utilization ([2]; supernatants, at 24 hrs) was 1.5 fold increase vs Dox. The “cell killing, agent alone” value [3, 8] was “able to kill renal cancer cells”, the “potency of low doses of Doxorubicin” value [3, 9] was “able to increase the potency of low doses of Doxorubicin” and the “cell killing, agent alone” value (H1299 lung cancer cells; [8]) was “able to kill lung cancer cells”. For the same compound, the “potency of low doses of Doxorubicin” value (H1299 lung cancer cells; [9]) was “able to increase the potency of low doses of Doxorubicin”, the “ROS in mitochondria (MitoSox Red)” value (H9C2 cells [4]) was “significant amelioration of ROS in mitochondria” and the “cell killing, agent alone” value (A549 lung cancer cells; [8]) was “able to kill lung cancer cells”. For the same compound, the “potency of low doses of Doxorubicin” value (A549 lung cancer cells; [9]) was “able to increase the potency of low doses of Doxorubicin”, the “protection against Dox toxicity, crystal violet staining” value (H9C2 cells [5]; H9C2, AP39 with Dox) was “significant protection” and the “AP39 dose conferring strongest protection (30 and 50 not as strong)” value (H9C2 cells [5]; H9C2, crystal violet, with Dox) was 40 µM. For the same compound, the “Serine and glycine 13C labeling” value ([6]; 16 hrs and 24 hrs) was “suppressed”, the “accumulation of TCA metabolites during Dox treatment” value ([6]; AP39 with Dox) was “attenuated accumulation of TCA metabolites” and the “amino acid accumulations during Dox treatment” value ([6]; AP39 with Dox) was “not effective in preventing many amino acid accumulations”. The “13C labeling of TCA cycle metabolites (citrate, malate, alpha-ketoglutarate, fumarate)” value ([6]; AP39 with or without Dox, 16 hrs and 24 hrs) was “highly labeled”, the “cell killing, agent alone” value [7, 8] was “able to kill SK-N-BE(2) cells” and the “potency of low doses of Doxorubicin” value [7, 9] was “able to increase the potency of low doses of Doxorubicin”. For the same compound, the “reduction of Dox IC value by AP39” value ([7]; vs original IC70) was about 8 fold.
